Laboratory results as given in patent US7584718B2, “Growing marine fish in fresh water” (MariCal, Inc., priority 2000, dated 2009).

System: full-length cation receptor (CaR) from the dogfish shark
Assay: Dogfish shark CaR expressed in human HEK cells, response to ionic composition of extracellular fluid
Assay type: cell-based
Conditions: extracellular fluid bathing HEK cells; range from freshwater to seawater
Text: Polyvalent cation-sensing receptors (PVCRs) serve as salinity sensors in fish. These receptors are localized to the apical membranes of various cells within the fish's body (e.g., in the gills, intestine, kidney) that are known to be responsible for osmoregulation. A full-length cation receptor (CaR) from the dogfish shark has been expressed in human HEK cells. […] The ionic concentrations responded to encompassed the range which includes the transition from freshwater to seawater. Expression of PVCR mRNA is also modulated in fish after their transfer from freshwater to seawater, and is modulated by PVCR agonists.

SMILES	Receptor response to alterations in ionic composition
[Mg+2] [Mg^2+, magnesium]	respond to alterations
[Cl-].[Na+] [NaCl, sodium chloride]	respond to alterations
[Ca+2] [Ca^2+, calcium]	respond to alterations
